Usually TGI stands for the concentration at which net growth stops. Read a low TGI as more potent growth arrest.

Among the test systems are MDA-N; MDA-MB-435; SK-OV-3 ovarian; SNB-75 CNS; SK-MEL-2 melanoma; HCT-116 colon; UACC-62 melanoma; K-562 leukemia; OVCAR-8 ovarian; SW-620 colon; U251 CNS; HOP-92 NSCLC; UO-31 renal; 786-0 renal; HOP-62 NSCLC; HT29 colon; EKVX NSCLC.
Experiment in all cases: DTP human tumour cell line panel, 48 h

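Growth conditions: 96-well plates. Treatment: test compound, 48 hours, 5 concentrations. Analysis: linear interpolation between bracketing concentrations; unreached endpoints set to highest concentration. TGI is the concentration that stops growth completely.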 A value given as a limit tells only on which side of the number the result lay.

Regarding `CCCCCCCN1C(=O)C(O)(c2ccc(C3(O)C(=O)N(CCCCCCC)c4ccccc43)s2)c2ccccc21` (stereo not given), the TGI stood at 4.06 µM with MDA-N; 3.87 µM in the experiment with MDA-MB-435; 2.2 µM in the experiment on SK-OV-3 ovarian; 17.3 µM with SNB-75 CNS; 2.93 µM in the experiment with SK-MEL-2 melanoma; 3.18 µM in the experiment on HCT-116 colon. Also, the TGI stood at 4.06 µM in the experiment with UACC-62 melanoma; 7.67 µM in the experiment on K-562 leukemia; 4.41 µM in the experiment on OVCAR-8 ovarian; 4.55 µM with SW-620 colon; 3.17 µM with U251 CNS; 3.55 µM in the experiment on HOP-92 NSCLC. Besides, the TGI worked out at 3.14 µM in the experiment on UO-31 renal, 3.61 µM in the experiment on 786-0 renal, 3.41 µM in the experiment with HOP-62 NSCLC and 3.28 µM in the experiment on HT29 colon.

In the case of `Cc1ccc(S(=O)(=O)Oc2nc3ccccc3nc2N(S(=O)(=O)c2ccc(C)cc2)S(=O)(=O)c2ccc(C)cc2)cc1`, the TGI in the experiment with MDA-N, with MDA-MB-435, in the experiment with SK-OV-3 ovarian, in the experiment with SNB-75 CNS, with SK-MEL-2 melanoma and in the experiment on HCT-116 colon was greater than 100 µM throughout. The concentration for total growth inhibition (TGI) in the experiment with EKVX NSCLC, in the experiment on UACC-62 melanoma, in the experiment with OVCAR-8 ovarian, in the experiment on SW-620 colon, in the experiment on U251 CNS and with UO-31 renal was greater than 100 µM throughout. For the same compound, the total growth inhibition concentration (TGI) with 786-0 renal and with HT29 colon was greater than 100 µM in each case.

Consider `NC(N)=NCCCC(NC(=O)OCCCCCCn1ccc(N)nc1=O)C(=O)O` (stereo not given), for which the TGI in the experiment on MDA-N, in the experiment with MDA-MB-435, in the experiment on SK-OV-3 ovarian, in the experiment on SNB-75 CNS, in the experiment on SK-MEL-2 melanoma and with HCT-116 colon was greater than 100 µM in each case. The TGI with EKVX NSCLC, in the experiment on UACC-62 melanoma, in the experiment with K-562 leukemia, in the experiment on SW-620 colon, in the experiment with U251 CNS and in the experiment on HOP-92 NSCLC was greater than 100 µM each time. Also, the TGI in the experiment on UO-31 renal, in the experiment on 786-0 renal, with HOP-62 NSCLC and in the experiment on HT29 colon was greater than 100 µM in each case.

As for `COc1c(O)c2c(=O)cc(OC)c3c4c(OC)cc(=O)c5c(O)c(OC)c6c(c(c1C(C(C)=O)C6C(C)O)c23)c54` (stereo not given), the total growth inhibition concentration (TGI) is 2.34 µM in the experiment with MDA-N; 3.1 µM in the experiment with MDA-MB-435; 2.49 µM with SK-OV-3 ovarian; 1.42 µM with SNB-75 CNS; 3.06 µM with HCT-116 colon; 4.55 µM in the experiment on EKVX NSCLC. In addition, the TGI is 1.01 µM in the experiment with UACC-62 melanoma; 0.71 µM with OVCAR-8 ovarian; 0.469 µM in the experiment on SW-620 colon; 0.603 µM with U251 CNS; 1.4 µM with HOP-92 NSCLC; 1.03 µM in the experiment with UO-31 renal. Further, the figures for the total growth inhibition concentration (TGI) in the experiment on 786-0 renal, in the experiment on HOP-62 NSCLC and in the experiment with HT29 colon were 3.81 µM, 0.632 µM and 0.267 µM, respectively.

On to `Cc1c(C)c2c(c(N)c1C#N)C(=O)N(CCN1CCNCC1)C2=O`, for which the TGI in the experiment with MDA-N is greater than 100 µM; in the experiment with MDA-MB-435, greater than 100 µM; in the experiment with SNB-75 CNS, 77 µM; with SK-MEL-2 melanoma, greater than 100 µM; with HCT-116 colon, 52.2 µM; with EKVX NSCLC, greater than 100 µM. Further, the TGI in the experiment on UACC-62 melanoma was 62.4 µM; in the experiment with K-562 leukemia it was greater than 100 µM; in the experiment with OVCAR-8 ovarian, greater than 100 µM; with SW-620 colon it was greater than 100 µM; in the experiment with U251 CNS, greater than 100 µM; in the experiment on HOP-92 NSCLC it was greater than 100 µM. Moreover, the total growth inhibition concentration (TGI) with UO-31 renal is 90.9 µM; in the experiment with 786-0 renal, greater than 100 µM.

With `Nc1nc(Cl)c2nnn(CC3CCC(CO)C3)c2n1` (stereo not given), the total growth inhibition concentration (TGI) with MDA-N, with MDA-MB-435, with SK-OV-3 ovarian, with SNB-75 CNS, with SK-MEL-2 melanoma and in the experiment with HCT-116 colon was greater than 100 µM each time. In addition, the TGI in the experiment on EKVX NSCLC, in the experiment with UACC-62 melanoma, with K-562 leukemia, in the experiment on SW-620 colon, with U251 CNS and in the experiment with HOP-92 NSCLC was greater than 100 µM each time. In addition, the TGI in the experiment on UO-31 renal, in the experiment on 786-0 renal and in the experiment on HOP-62 NSCLC was greater than 100 µM throughout.

As for `Cc1ccc(/C=C/C(=O)c2cc(CN(C)C)c(O)c(CN(C)C)c2)cc1`, the total growth inhibition concentration (TGI) is 42.5 µM with MDA-N; 57 µM in the experiment with MDA-MB-435; 88.9 µM in the experiment on SNB-75 CNS; 39.7 µM in the experiment on HCT-116 colon; greater than 100 µM with EKVX NSCLC; 43.9 µM in the experiment on K-562 leukemia. Moreover, the concentration for total growth inhibition (TGI) in the experiment on OVCAR-8 ovarian was 78.9 µM; in the experiment on SW-620 colon it was 38.2 µM; with U251 CNS, 58 µM; in the experiment with HOP-92 NSCLC it was 70.8 µM; in the experiment on UO-31 renal it was 60 µM; in the experiment with 786-0 renal, 73.9 µM. Besides, the TGI worked out at 37.5 µM with HOP-62 NSCLC and 33 µM with HT29 colon.

On to `CCOC(=O)c1cnc(-n2[nH]c3c(c2=O)CCCC3)[nH]c1=O`, for which the TGI in the experiment with MDA-N, in the experiment on MDA-MB-435, with SK-OV-3 ovarian, in the experiment on SK-MEL-2 melanoma, in the experiment with HCT-116 colon and in the experiment with EKVX NSCLC was greater than 100 µM each time. The concentration for total growth inhibition (TGI) in the experiment on UACC-62 melanoma was 95.4 µM; in the experiment with K-562 leukemia, greater than 100 µM; in the experiment on OVCAR-8 ovarian, greater than 100 µM; in the experiment on SW-620 colon it was greater than 100 µM; with U251 CNS it was greater than 100 µM; in the experiment with HOP-92 NSCLC, 57.6 µM. Also, the TGI in the experiment with UO-31 renal, with 786-0 renal and in the experiment with HT29 colon was greater than 100 µM in each case.

As for `COC(=O)c1ccccc1/C=C1\Cc2cc(C)c(C)cc2C1=O`, the concentration for total growth inhibition (TGI) with MDA-N is greater than 100 µM; in the experiment on MDA-MB-435, greater than 100 µM; in the experiment on SNB-75 CNS, 81.3 µM; with SK-MEL-2 melanoma, 68.3 µM; in the experiment on HCT-116 colon it was greater than 100 µM; in the experiment on EKVX NSCLC, greater than 100 µM. Further, the TGI is greater than 100 µM in the experiment with UACC-62 melanoma; greater than 100 µM with K-562 leukemia; greater than 100 µM in the experiment with OVCAR-8 ovarian; greater than 100 µM in the experiment with SW-620 colon; 96.8 µM with U251 CNS; 59.2 µM in the experiment with HOP-92 NSCLC. Also, the TGI was greater than 100 µM with UO-31 renal, greater than 100 µM in the experiment on 786-0 renal, 85.8 µM in the experiment on HOP-62 NSCLC and greater than 100 µM in the experiment with HT29 colon.

For the origin of these results see PubChem BioAssay (NCI).
